Data: PMC4432651, “Dynamic interplay between catalytic and lectin domains of GalNAc-transferases modulates protein O-glycosylation” (Nature Communications, 2015)
Where a SMILES comes first, the peptide text is derived from it. The star is where a group is joined. αGalNAc = CC(=O)N[C@@H]1[C@@H](O)[C@@H](O)[C@@H](CO)O[C@@H]1*

Columns and labels:
GalNAc-T2 [1] = molecular target: T1, GalNAc-T2 (Homo sapiens, UniProt Q10471); experiment: X-ray crystal structures of GalNAc-T2 complexes; assay type: binding; conditions: co-crystallization with UDP and Mn+2; flexible loop conformation
T1 construct: made in house
T1 sequence (Q10471 75-571 limits assumed): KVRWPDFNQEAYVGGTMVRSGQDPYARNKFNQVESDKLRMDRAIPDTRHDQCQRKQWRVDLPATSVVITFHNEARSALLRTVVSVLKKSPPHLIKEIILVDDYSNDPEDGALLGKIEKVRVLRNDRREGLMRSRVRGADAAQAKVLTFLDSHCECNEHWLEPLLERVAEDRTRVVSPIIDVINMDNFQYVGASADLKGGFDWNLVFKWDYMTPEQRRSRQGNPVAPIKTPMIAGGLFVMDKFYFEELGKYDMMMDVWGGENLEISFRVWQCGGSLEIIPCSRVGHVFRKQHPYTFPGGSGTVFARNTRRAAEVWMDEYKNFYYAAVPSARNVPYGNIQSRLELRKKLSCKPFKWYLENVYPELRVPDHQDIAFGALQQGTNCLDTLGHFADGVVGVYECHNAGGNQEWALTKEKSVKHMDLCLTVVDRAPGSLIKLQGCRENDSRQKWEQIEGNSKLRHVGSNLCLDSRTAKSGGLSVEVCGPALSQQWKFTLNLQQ
Description: In all cases, crystals were grown by hanging drop vapour diffusion at 18 °C. […] The protein solution consisting of 3.5 mg ml^−1 of GalNAcT-2, 5 mM UDP, 5 mM MnCl2 and 6 mM MUC5AC-13 in the same buffer described above was mixed with the precipitant solution containing 1.6 M ammonium sulfate, 100 mM sodium chloride and 100 mM HEPES (pH 7). The crystals were cryoprotected in saturated lithium sulfate and frozen in a nitrogen gas stream cooled to 100 K.
All data were processed and scaled using the XDS package[34] and CCP4 software. The crystal structures were solved by molecular replacement with Phaser[35] and using the PDB entry 4D0T as the template. Initial phases were further improved by cycles of manual model building in Coot[36] and refinement with REFMAC5 (ref. [37]). The AUs of the tetragonal crystals contain 1 molecule of GalNAc-T2 (Fig. 1). Coordinates and structure factors have been deposited in the Worldwide Protein Data Bank (wwPDB, and see Table 1 for the pdb codes).

GalNAc-T2 [2] = molecular target: T1, GalNAc-T2; experiment: SAXS with Ensemble Optimization Method: GalNAc-T2 conformations/oligomers with ligands; conditions: GalNAc-T2 5 mg/ml, 25 mM TRIS pH 7.5, 10 mM MnCl2, 10 °C; for Dmax: maximum intramolecular distance, GNOM; for all read-outs here: values in Å
Description: SAXS measurements were performed at the European Molecular Biology Laboratory on the storage ring PETRA-III (DESY-Hamburg) on the P12 beamline equipped with a robotic sample changer and a PILATUS-2M. The analysis of the SAXS data was performed by using the EOM[31]. Additional details are in Supplementary Methods. […]
Small-angle X-ray scattering (SAXS) and data analysis
All experiments were performed in a buffer consisting of 25 mM TRIS pH 7.5, 10 mM MnCl2. The first set of experiments contained three different protein concentrations: 10 mg/ml (180 µM), 5 mg/ml (90 µM), 2.5 mg/ml (45 µM) and 1 […]
mg/ml (18 µM). The protein was measured alone and in the presence of ten times molar excess of UDP, UDP-GalNAc, UDP-EA2 peptide, MUC5AC-13, UDP-MUC5AC-13, MUC5AC, and UDP-MUC5AC. The second set of experiments was carried out with the protein concentration fixed at 5 mg/ml, and increasing concentrations of UDP (450 µM, 900 µM, 1.8 mM, 4.5 mM and 9 mM). The concentration of MUC5AC-13 was also changed as follows: 1 mM, 5 mM and 7.5 […]
Synchrotron SAXS measurements were performed at the European Molecular
Biology Laboratory (EMBL) on the storage ring PETRA-III (DESY-Hamburg) on the P12 beamline equipped with a robotic sample changer and a PILATUS-2M. The sample-detector distance was 3.1 m. The scattering intensity, I(s), was recorded at 10 °C in a momentum transfer range of 0.007<s<0.444 Å -1, where s = (4πsinθ )/λ , 2θ is the scattering angle, and λ = 1.24 Å is the X-ray wavelength. Twenty consecutive 0.05 second measurements were performed for protein samples and buffers to monitor for radiation damage that were subsequently averaged (no systematic radiation effects were observed). Buffer scattering profiles were subtracted from the sample ones using standard procedures 8. The values of the forward scattering, I(0), and radii of gyration, Rg, were calculated from the experimental SAXS patterns using Guinier’s approximation (Supplementary Fig. 4 and 5), I(s) = I(0)exp(-s2Rg2/3), which is valid in the range sRg < 1.3.
Structural analysis of the SAXS data was performed using the Ensemble Optimization Method (EOM)9. A pool of 10,000 monomeric structures of GalNac-T2 was constructed with the program RanCh9 by connecting three-dimensional structures of the catalytic and the lectin domains, extracted from the crystallographic structure 2FFU, with a flexible linker of 12 residues with random coil conformations. To […]
properly describe the data, these monomeric ensembles were enriched with 100 equivalent curves corresponding to one dimeric arrangement. As we tested three dimers, we built three different ensembles with the same 10,000 monomeric conformations and 100 copies of each one of the dimers. The three different dimers used for SAXS are shown in Supplementary Fig. 3c and correspond to three different crystal structures obtained under different conditions.
The scattering profiles of all members of the pool were computed with the program CRYSOL using standard parameters10. The pool of structures/profiles was submitted to the genetic algorithm (GA) with the aim to select a subensemble of 50 structures/curves with the capacity to collectively describe the experimental SAXS […]
was repeated 200 times starting from different randomly selected subensembles, and the resulting solutions were analysed together. The same pool was used to describe all the measured data. Results were quantitatively analysed by displaying the Rg distributions of the selected ensembles and the relative population of monomeric and dimeric species.
Three different dimeric arrangements were introduced individually in the pool. In all three cases the dimers display similar contacts between the lectin domains and the lectin domain of one monomer with the catalytic domain of a second monomer (Supplementary Fig. 3c). We can distinguish the crystallographic dimers by the buried area parameter inferred from the PISA server. The dimers present in the crystal structure of GalNAc-T2-UDP complex (PDB entry 2FFV) are the most compact ones […]

GalNAc-T2 [3] = molecular target: T1, GalNAc-T2; experiment: Tryptophan fluorescence spectroscopy, dissociation constants of GalNAc-T2 against peptides; assay type: binding; conditions: Kd in the absence of UDP/Mn+2 compared with presence of the nucleotide
Description: All experiments were carried out in a Cary Eclipse spectrofluorometer (Varian) at 25 °C with GalNAc-T2 at 1 μM, and concentrations of peptides varying from 1 to 500 μM in 25 mM Tris, 150 mM NaCl, pH 7.5. The same experiments were also performed in the same buffer but containing 400 μM UDP and 1 mM MnCl2. Fluorescence emission spectra were recorded in the 300–400 nm range with an excitation wavelength of 280 nm, with slit width of 5 nm. The data analysis was performed in Prism (GraphPad software) considering a model with a single binding site (see equation (1), where F0 is the intrinsic fluorescence of the enzyme in the absence of quencher (Q), F1 is the observed fluorescence at a given quencher concentration, fa is the fractional degree of fluorescence and Kd is the dissociation constant.

GalNAc-T2 [4] = molecular target: T1, GalNAc-T2; experiment: Time-lapse AFM of single GalNAc-T2 molecules with ligands; conditions: in the presence of Mn+2; GalNAc-T2 2.0 nM on mica, UDP, UDP-GalNAc and MnCl2 20.0 nM, PBS pH 7.4, 20 °C
Description: AFM measurements were performed using a MultiMode 8 AFM system (Bruker). […] Additional details are in Supplementary Methods. […]
simulations were performed with the acceptor amino acid – UDPGalNAc distance and the RMSD of the Cα peptide carbon atoms as collective variables.
The values of the height and width of the Gaussian-like biasing potential were selected as 1.0 kcal·mol -1 and 0.25 Å, respectively. A temperature window of ΔT = 25000 K for the well-tempered algorithm was used together with a deposition time of 1 ps. The simulation was continued until the system completely explored the free energy landscape several times which, in terms of the simulation time, corresponds to approximately 100 ns for each metadynamics run.
Atomic Force Microscopy Imaging
In Tapping Mode image operation the cantilever driven by a piezoelectric actuator vibrates near its resonance frequency. Upon approaching the sample, the tip briefly touches the surface at the bottom of each swing, resulting in a decrease in oscillation amplitude. […]
AFM scanning requires the sample be immobilized on a nanoflat surface not to be swept away. […] The concentration of the protein incubated on the mica sheets was suitable to get isolated features that could be analyzed individually. […]
GalNAc-T2 presents a net positive charge at the working pH conditions due to its theoretical isoelectric point of 8.3. The immobilization of enzymes on mica was previously evaluated observing clearly they preserve the enzymatic activity5.
To determine how the ligands affect the conformational dynamics of GalNAc-T2, the enzyme was also incubated with ligands for 10 min under mild stirring at room temperature. […] AFM images were further analyzed by using the WSxM software6. […] At least 10 images of 10 different areas of 500 nm2 were analyzed for every sample and environment. Furthermore, each feature or associate was analyzed in detail with the zoom function of the WSxM program, performed without losing image information and or the discarding of artifacts. […]

[5] = ligand molar ratio GalNAc-T2:ligand 1:10

SMILES | form of GalNAc-T2 bound in crystal (GalNAc-T2 [1]) | Rg from p(r) (GNOM) (GalNAc-T2 [2]; ligand molar ratio 1:10) | Dmax (GalNAc-T2 [2]; ligand molar ratio 1:10) | Rg (Guinier) (GalNAc-T2 [2]; [5]) | Rg (Guinier) (GalNAc-T2 [2]; peptide + UDP (1:10)) | Rg from p(r) (GNOM) (GalNAc-T2 [2]; peptide + UDP (1:10)) | Dmax (GalNAc-T2 [2]; peptide + UDP (1:10)) | Kd in the absence vs presence of UDP/Mn+2 (GalNAc-T2 [3]) | conformational states of GalNAc-T2 observed (GalNAc-T2 [4])
CC(=O)N[C@H]1[C@@H](O[C@H](C)[C@H](NC(=O)[C@@H](NC(=O)[C@H](CO)NC(=O)[C@@H](NC(=O)[C@@H](NC(=O)[C@@H]2CCCN2C(=O)[C@@H](NC(=O)[C@@H]2CCCN2C(=O)[C@H](CO)NC(=O)[C@@H]2CCCN2C(=O)[C@@H](NC(=O)[C@@H](NC(=O)CN)[C@@H](C)O)[C@@H](C)O[C@H]2O[C@H](CO)[C@H](O)[C@H](O)[C@H]2NC(C)=O)C(C)C)[C@@H](C)O)[C@@H](C)O)[C@@H](C)O)C(=O)N[C@@H](CO)C(=O)N[C@@H](C)C(N)=O)O[C@H](CO)[C@H](O)[C@@H]1O [MUC5AC-3-13] (H-GTT(αGalNAc)PSPVPTTSTT(αGalNAc)SA-NH2; N-terminus assumed) | bound to the inactive form of GalNAc-T2 | – | – | – | – | – | – | – | –
CC(=O)NCC(=O)N[C@H](C(=O)N[C@H](C(=O)N1CCC[C@H]1C(=O)N[C@@H](CO)C(=O)N1CCC[C@H]1C(=O)N[C@H](C(=O)N1CCC[C@H]1C(=O)N[C@H](C(=O)N[C@H](C(=O)N[C@@H](CO)C(=O)N[C@H](C(=O)N[C@H](C(=O)N[C@@H](CO)C(=O)N[C@@H](C)C(N)=O)[C@@H](C)O)[C@@H](C)O)[C@@H](C)O)[C@@H](C)O)C(C)C)[C@@H](C)O)[C@@H](C)O [MUC5AC] (Ac-GTTPSPVPTTSTTSA-NH2; N-terminus assumed) | – | 33.4 Å | 120 Å | 32.3±0.3 Å | 32.0±0.2 Å | 33.3 Å | 120 Å | fourfold better | –
CC(=O)N[C@H]1[C@@H](OP(=O)(O)OP(=O)(O)OC[C@H]2O[C@@H](n3ccc(=O)[nH]c3=O)[C@H](O)[C@@H]2O)O[C@H](CO)[C@H](O)[C@@H]1O [UDP-GalNAc, uridine diphosphate N-acetylgalactosamine, reference compound] | – | 34.6 Å | 124 Å | 34.7±0.4 Å | – | – | – | – | either the very compact or the compact structure
